Tests used:
Hepatitis C virus [1] = experiment: Antiviral activity against Hepatitis C virus subtype 1b by stable replicon assay; assay type: functional, organism-based, Hepacivirus hominis; details: genotype 1b
Hepatitis C virus [2] = experiment: Antiviral activity against Hepatitis C virus subtype 1b harboring protease A156T mutant by transient replicon assay; assay type: functional, organism-based, Hepacivirus hominis; details: genotype 1b
Hepatitis C virus [3] = experiment: Antiviral activity against Hepatitis C virus subtype 1b harboring protease A156V mutant by transient replicon assay; assay type: functional, organism-based, Hepacivirus hominis; details: genotype 1b
Hepatitis C virus [4] = experiment: Antiviral activity against Hepatitis C virus subtype 1b harboring protease D168V mutant by transient replicon assay; assay type: functional, organism-based, Hepacivirus hominis; details: genotype 1b
Hepatitis C virus [5] = experiment: Antiviral activity against Hepatitis C virus subtype 1b harboring protease D168A mutant by transient replicon assay; assay type: functional, organism-based, Hepacivirus hominis; details: genotype 1b
Hepatitis C virus [6] = experiment: Resistance index, ratio of EC50 for Hepatitis C virus subtype 1b harboring protease D168V mutant to EC50 for wild type Hepatitis C virus subtype 1b; assay type: functional, Hepacivirus hominis, genotype 1b
Hepatitis C virus [7] = experiment: Resistance index, ratio of EC50 for Hepatitis C virus subtype 1b harboring protease R155K mutant to EC50 for wild type Hepatitis C virus subtype 1b; assay type: functional, Hepacivirus hominis, genotype 1b
Hepatitis C virus [8] = experiment: Antiviral activity against Hepatitis C virus subtype 1b harboring protease A156S mutant by transient replicon assay; assay type: functional, organism-based, Hepacivirus hominis; details: genotype 1b
Hepatitis C virus [9] = experiment: Antiviral activity against wild type Hepatitis C virus subtype 1b by transient replicon assay; assay type: functional, organism-based, Hepacivirus hominis; details: genotype 1b
Hepatitis C virus [10] = experiment: Antiviral activity against Hepatitis C virus subtype 1b harboring protease R155K mutant by transient replicon assay; assay type: functional, organism-based, Hepacivirus hominis; details: genotype 1b
Hepatitis C virus [11] = experiment: Resistance index, ratio of EC50 for Hepatitis C virus subtype 1b harboring protease D168A mutant to EC50 for wild type Hepatitis C virus subtype 1b; assay type: functional, Hepacivirus hominis, genotype 1b
[12] = Inhibition of HCV 1a protease 1a domain; parameters: species or system Hepacivirus hominis
Hepatitis C virus [13] = experiment: Antiviral activity against Hepatitis C virus subtype 1a by stable replicon assay; assay type: functional, organism-based, Hepacivirus hominis
[14] = Terminal half life in rat at 5 mg/kg, po; assay type: ADME, organism-based; parameters: dose 5 mg/kg, route oral; details: in vivo, read-out: beta t1/2 (converted)
[15] = (§1) AUC in rat at 5 mg/kg, po; assay type: ADME, organism-based, Plasma; parameters: dose 5 mg/kg, route oral; details: plasma
[16] = Maximum drug absorption in rat at 5 mg/kg, po; assay type: ADME, organism-based; parameters: dose 5 mg/kg, route oral; details: in vivo, read-out: Drug absorption
Rattus norvegicus [17] = experiment: Dose normalized AUC in rat at 5 mg/kg, po; assay type: ADME, organism-based; parameters: dose 5 mg/kg, route oral; details: in vivo
[18] = (§2) AUC in rat at 1 mg/kg, iv; assay type: ADME, organism-based, Plasma; parameters: dose 1 mg/kg, route intravenous; details: plasma
[19] = (§3) Oral bioavailability in rat at 5 mg/kg; assay type: ADME, organism-based; details: in vivo
Rattus norvegicus [20] = experiment: Hepatic clearance in rat at 1 mg/kg, iv; assay type: ADME, organism-based, Liver; parameters: dose 1 mg/kg, route intravenous; details: in vivo
Hepatitis C virus [21] = experiment: Ratio of EC50 for TMC-435350 to EC50 for compound against Hepatitis C virus subtype 1b harboring protease R155K mutant by transient replicon assay; assay type: functional, Hepacivirus hominis, genotype 1b
Hepatitis C virus [22] = experiment: Ratio of EC50 for danoprevir to EC50 for compound against Hepatitis C virus subtype 1b harboring protease D168V mutant by transient replicon assay; assay type: functional, Hepacivirus hominis, genotype 1b
Rattus norvegicus [23] = experiment: as §1; assay type: ADME, organism-based, Plasma; parameters: dose 5 mg/kg, route oral; details: in vivo
[24] = Terminal half life in rat liver at 5 mg/kg, po; assay type: ADME, organism-based; parameters: dose 5 mg/kg, route oral; details: read-out: beta t1/2 (converted)
Hepatitis C virus [25] = experiment: Ratio of EC50 for danoprevir to EC50 for compound against Hepatitis C virus subtype 1b harboring protease R155K mutant by transient replicon assay; assay type: functional, Hepacivirus hominis, genotype 1b
Hepatitis C virus [26] = experiment: Ratio of EC50 for danoprevir to EC50 for compound against Hepatitis C virus subtype 1b harboring protease D168A mutant by transient replicon assay; assay type: functional, Hepacivirus hominis, genotype 1b
Hepatitis C virus [27] = experiment: Ratio of EC50 for TMC-435350 to EC50 for compound against wild type Hepatitis C virus subtype 1b by transient replicon assay; assay type: functional, Hepacivirus hominis, genotype 1b
Liver = experiment: Ratio of drug level in liver to plasma in rat at 5 mg/kg, po; assay type: ADME, organism-based; parameters: dose 5 mg/kg, route oral; details: other tissue
Hepatitis C virus [28] = experiment: Ratio of EC50 for danoprevir to EC50 for compound against wild type Hepatitis C virus subtype 1b by transient replicon assay; assay type: functional, Hepacivirus hominis, genotype 1b
Hepatitis C virus [29] = experiment: Ratio of EC50 for danoprevir to EC50 for compound against Hepatitis C virus subtype 1b harboring protease A156V mutant by transient replicon assay; assay type: functional, Hepacivirus hominis, genotype 1b
Hepatitis C virus [30] = experiment: Ratio of EC50 for danoprevir to EC50 for compound against Hepatitis C virus subtype 1b harboring protease A156T mutant by transient replicon assay; assay type: functional, Hepacivirus hominis, genotype 1b
[31] = AUC in rat liver at 5 mg/kg, po; assay type: ADME, organism-based; parameters: dose 5 mg/kg, route oral
Hepatitis C virus [32] = experiment: Ratio of EC50 for TMC-435350 to EC50 for compound against Hepatitis C virus subtype 1b harboring protease A156V mutant by transient replicon assay; assay type: functional, Hepacivirus hominis, genotype 1b
Rattus norvegicus [33] = experiment: as §2; assay type: ADME, organism-based, Plasma; parameters: dose 1 mg/kg, route intravenous; details: in vivo
Hepatitis C virus [34] = experiment: Ratio of EC50 for TMC-435350 to EC50 for compound against Hepatitis C virus subtype 1b harboring protease A156T mutant by transient replicon assay; assay type: functional, Hepacivirus hominis, genotype 1b
Hepatitis C virus [35] = experiment: Ratio of EC50 for danoprevir to EC50 for compound against Hepatitis C virus subtype 1b harboring protease A156S mutant by transient replicon assay; assay type: functional, Hepacivirus hominis, genotype 1b
Hepatitis C virus [36] = experiment: Ratio of EC50 for TMC-435350 to EC50 for compound against Hepatitis C virus subtype 1b harboring protease D168V mutant by transient replicon assay; assay type: functional, Hepacivirus hominis, genotype 1b
Hepatitis C virus [37] = experiment: Ratio of EC50 for TMC-435350 to EC50 for compound against Hepatitis C virus subtype 1b harboring protease D168A mutant by transient replicon assay; assay type: functional, Hepacivirus hominis, genotype 1b
Hepatitis C virus [38] = experiment: Ratio of EC50 for TMC-435350 to EC50 for compound against Hepatitis C virus subtype 1b harboring protease A156S mutant by transient replicon assay; assay type: functional, Hepacivirus hominis, genotype 1b
Rattus norvegicus [39] = experiment: as §3; assay type: ADME, organism-based; details: in vivo

Structure (SMILES) | EC50 (Hepatitis C virus [1]) [nM] | EC50 (Hepatitis C virus [2]) [nM] | EC50 (Hepatitis C virus [3]) [nM] | EC50 (Hepatitis C virus [4]) [nM] | EC50 (Hepatitis C virus [5]) [nM] | Ratio EC50 (Hepatitis C virus [6]) | Ratio EC50 (Hepatitis C virus [7]) | EC50 (Hepatitis C virus [8]) [nM] | EC50 (Hepatitis C virus [9]) [nM] | EC50 (Hepatitis C virus [10]) [nM] | Ratio EC50 (Hepatitis C virus [11]) | IC50 [12] [nM] | EC50 (Hepatitis C virus [13]) [nM] | half-life [14] [h] | Fa [16] [%] | AUC/dose (Rattus norvegicus [17]) [kg·µg·h/mL/mg] | CLH (Rattus norvegicus [20]) [mL/min/kg] | other results
CCN(C)C(=O)N[C@H]1CCCCC/C=C\[C@@H]2C[C@@]2(C(=O)NS(=O)(=O)C2CC2)NC(=O)[C@@H]2C[C@@H](Oc3cc(-c4nc(C(C)C)cs4)nc4c(C)c(OC)ccc34)CN2C1=O | 0.4 | 3 | 11 | 147 | 60 | <1000 | <1000 | 0.5 | 0.2 | 25 | <1000 | 6 | 0.7 | – | – | – | – | –
COc1ccc2c(O[C@@H]3C[C@H]4C(=O)N[C@]5(C(=O)NS(=O)(=O)C6CC6)C[C@H]5/C=C\CCCCC[C@H](NC(=O)N5CC(F)(F)C5)C(=O)N4C3)cc(-c3nc(C(C)C)cs3)nc2c1C | 0.5 | 1 | 6 | 58 | 15 | <1000 | <1000 | – | 0.1 | 14 | <1000 | 2 | 0.8 | 0.806 | 6.8 | 0.014 | 91.03 | AUC [15]: 69 ng·h/mL; AUC [18]: 203 ng·h/mL; bioavailability [19]: 4%
CCC[C@H](NC(=O)[C@@H]1[C@H]2CCC[C@H]2CN1C(=O)[C@@H](NC(=O)[C@@H](NC(=O)c1cnccn1)C1CCCCC1)C(C)(C)C)C(=O)C(=O)NC1CC1 [TELAPREVIR] | 372 | 1140 | 1960 | 207 | 638 | 6 | 6 | 883 | 34 | 1780 | 6 | 500 | 540 | – | – | – | – | –
COc1ccc2c(O[C@@H]3C[C@H]4C(=O)N[C@]5(C(=O)NS(=O)(=O)C6CC6)C[C@H]5/C=C\CCCCC[C@H](NC(=O)N5CCCCC5)C(=O)N4C3)cc(-c3nc(C(C)C)cs3)nc2c1C | 0.5 | 2 | 7 | 79 | 32 | – | – | 0.1 | 0.04 | 6 | – | 5 | 0.4 | 1.16 | 20 | 0.053 | 83.4 | Ratio EC50 (Hepatitis C virus [21]): 9; Ratio EC50 (Hepatitis C virus [22]): 0.3; AUC (Rattus norvegicus [23]): 266 ng·h/mL; half-life [24]: 8.1 h; Ratio EC50 (Hepatitis C virus [25]): 14; Ratio EC50 (Hepatitis C virus [26]): 1; Ratio EC50 (Hepatitis C virus [27]): 23; Ratio (Liver): 1158; Ratio EC50 (Hepatitis C virus [28]): 5; Ratio EC50 (Hepatitis C virus [29]): 1; Ratio EC50 (Hepatitis C virus [30]): 5; AUC [31]: 308000 ng·h/mL; Ratio EC50 (Hepatitis C virus [32]): 49; AUC (Rattus norvegicus [33]): 268 ng·h/mL; Ratio EC50 (Hepatitis C virus [34]): 43; Ratio EC50 (Hepatitis C virus [35]): 21; Ratio EC50 (Hepatitis C virus [36]): 2; Ratio EC50 (Hepatitis C virus [37]): 5; Ratio EC50 (Hepatitis C virus [38]): 3.5; F (Rattus norvegicus [39]): 9.4%

Source: ChEMBL document CHEMBL2034968, “Discovery of novel urea-based hepatitis C protease inhibitors with high potency against protease-inhibitor-resistant mutants” (J Med Chem, 2012)
